Measured values as given in patent US8003673B2, “Daptomycin for the treatment of biofilm and catheter salvage” (Cubist Pharmaceuticals, Inc., priority 2006, dated 2011).
In brackets after ≈: the same amount, converted by molar mass. Read-outs that look alike come from different tables or passages of the source.

Key:
[1] = system: Staphylococcus epidermidis; assay: Susceptibility (MIC) of S. epidermidis isolates used in CVC studies
Staphylococcus aureus = assay: Susceptibility (MIC) of S. aureus #42 control strain; assay type: cell-based
[2] = system: S. epidermidis CVC infection; assay: Rat model of CVC infection, antibiotic lock therapy; assay type: in vivo, Sprague Dawley rats; settings: for Metastatic infection after lock therapy: lock therapy combined with SC dosing
Protocol: (§1) Male Sprague Dawley rats (˜250 g) with catheterized jugular veins were used in these studies. Rat catheters (polyurethane tubing, 0.025 inch internal diameter) were inoculated with a culture of S. epidermidis at 5×10^8 CFU/ml. The total volume of the catheters is approximately 40 μl. The catheters were flushed with heparinized saline 1 hour after inoculation, and were maintained by daily flushes. The catheter infection was monitored by daily blood draws that were plated and quantified.
(§2) Daptomycin, vancomycin and nafcillin were used as therapy. Two different dosing regimes were used. The first mimicked clinical infusion with daptomycin administered at 5 mg/ml in the line for 30 minutes once daily compared to vancomycin at 5 mg/ml for 60 minutes twice daily, for a total of 4 days. The second regime simulated antibiotic lock therapy with an 18 hour exposure of daptomycin or vancomycin at 5 mg/ml, followed by a heparinized saline flush, daily for 3 days. In both regimes, the animals received parenteral doses of the appropriate antibiotic by subcutaneous route to simulate total body exposure (as it was not possible to administer the correct dosages through the line at 5 mg/ml). Most trials involved a therapy period, followed by a period of no antibiotic therapy to monitor for resurgence of infection due to surviving bacterial colonies.
(§3) Infection levels were monitored by daily blood draws through the infected catheter. For the terminal harvest, a final blood draw was taken and then the flushed catheter was harvested, and analyzed for surviving bacteria by sonication, vortexing, and plating. The vena cava, heart, lung, kidney, and spleen were assayed as potential metastatic infection sites by aseptic harvest, homogenization, and plating.

[3] = system: Methicillin-resistant coagulate negative staphylococci biofilms; assay type: cell-based, coagulase negative staphylococci (S. epidermidis isolates)
Protocol: Methicillin-resistant coagulate negative staphylococci biofilms were grown to approximately 10^5 cells per cm^2 for 24 h in glass test tubes, planktonic bacteria rinsed away and Mueller Hinton broth (calcium supplemented to […] in daptomycin tests) containing antimicrobials added to the tubes. The concentrations of antimicrobials studied were two-fold dilutions from 64 to 1 μg/mL of daptomycin, rifampin, or daptomycin plus 0.5 μg/mL rifampin. The tests were incubated overnight in room air at 37° C. The cell density in rinsed biofilms was determined prior to addition of antimicrobials and after incubation. The change in bacterial density after incubation with antimicrobials was determined, and the results were expressed as the lowest antimicrobial concentration that killed 99.90% of biofilm bacteria. Bacteria recovered from tests containing rifampin were tested for rifampin susceptibility.

[4] = system: stationary phase S. epidermidis; assay: In vitro model of stationary phase bacteria (kill kinetics); assay type: cell-based; settings: for Cidal activity against stationary phase culture: through 24 hours
Protocol: The impact of cidal activity of antibacterial compounds on stationary phase bacteria was assayed. Cultures of S. epidermidis and S. aureus were grown to stationary phase (>1×10^9 and centrifuged, washed 2×, and then resuspended into saline or lactated Ringer's solution. The cultures were treated with either daptomycin or vancomycin at 5 mg/ml and the decrease in viable bacteria were measured through 24 hours to determine the kill kinetics.

[5] = system: S. epidermidis biofilm in catheter; assay: Histopathology of CVC biofilms in the rat model; assay type: in vivo, Sprague Dawley rats
Protocol: The nature of the CVC infection and resulting biofilms in the catheter was determined through histopathology. The data on histopathology can be summarized as follows: • 1. Eight days after implantation, the rat central venous catheter model develops focal biofilms with or without bacterial colonies in the catheter's inner luminal surfaces. At this time point, the thickness of the biofilm varies between 7 to 15 microns. • 2. After 12 days of implantation, the fibrils making up the inner luminal surface biofilm appear to be denser and more organized, and the biofilm layer is slightly thicker (up to 25 microns). • 3. In the saline negative controls, bacterial colonies were present in the biofilm, and identified as Gram positive cocci. • 4. […] However, cocci-like, Gram positive individual round structures were noted. • 5.
At day 12 post infection in untreated rats, as in the previous time point, biofilms tended to be present in the inner luminal surfaces of the indwelling catheter, 5-25 microns thick, and contained variable numbers of basophilic granular bacterial colonies (confirmed by Gram stain). However, in contrast to the previous time point, focal portions of the luminal protein cast appeared to be more organized and contained numerous bluish bacterial colonies. See FIG. 10 showing the biofilm appearance at day 12 post infection. […] Rat A1 served as negative control and received saline (2 mL/kg SC+saline via catheter); Rat A6 received low-dose daptomycin (10 mg/kg SC+5 mg/mL via catheter); Rat A12 received high-dose daptomycin (33 mg/kg SC+5 mg/mL via catheter); and Rat A17 received vancomycin (50 mg/kg SC+5 mg/mL via catheter). Tissues from the four rats were evaluated. FIG. 11, below, is a composite of the findings for all four rats.
FIG. 11 provides histopathological evidence of daptomycin and vancomycin efficacy after 4 days of infusion therapy. In FIG. 11, from left to right, the images illustrate the CVC tissues from rats A1, A6, A12, and A17, respectively. The upper images are all H&E-stained and the bottom images are all Gram-stained. […] These round structures surrounded or encircled cell membranes.

[6] = system: S. epidermidis CVC infection; assay: Rat model of CVC infection, infusion therapy; assay type: in vivo, Sprague Dawley rats
Protocol: as §1, §2, §3

[7] = strain 119 Staphylococcus epidermidis
[8] = strain 1315 Staphylococcus epidermidis
[9] = strain 1316 Staphylococcus epidermidis
[10] = strain 1317 Staphylococcus epidermidis
[11] = strain 1318 Staphylococcus epidermidis
[12] = strain 1319 Staphylococcus epidermidis
[13] = strain 1320 Staphylococcus epidermidis
[14] = strain 42 Staphylococcus aureus, read-out: MIC
[15] = following 7 days of antibiotic-free heparin flushes
[16] = Antimicrobial Concentration ≧64
[17] = day 15, after 6 days of antibiotic-free heparin flushes following infusion therapy

Row | MIC [1, 11] | MIC (Staphylococcus aureus; [14]) | Structure (SMILES) | MIC [1, 7] | MIC [1, 8] | MIC [1, 9] | MIC [1, 10] | MIC [1, 12] | MIC [1, 13] | Animals with positive catheter at harvest after lock therapy [2, 15] | Metastatic infection after lock therapy [2] | other results
1 | 1 µg/mL (≈ 2.96 µM) | 2 µg/mL (≈ 5.93 µM) | CC(=O)NC[C@H]1CN(c2ccc(N3CCOCC3)c(F)c2)C(=O)O1 [Linezolid] | 1 µg/mL (≈ 2.96 µM) | 0.5 µg/mL (≈ 1.48 µM) | 1 µg/mL (≈ 2.96 µM) | 0.5 µg/mL (≈ 1.48 µM) | 0.5 µg/mL (≈ 1.48 µM) | 1 µg/mL (≈ 2.96 µM) |  |  | 
2 | > 16 µg/mL | 0.125 µg/mL (≈ 0.302 µM) | CCOc1ccc2ccccc2c1C(=O)N[C@@H]1C(=O)N2[C@@H]1SC(C)(C)[C@@H]2C(=O)O [Nafcillin] | 0.031 µg/mL (≈ 0.0748 µM) | 2 µg/mL (≈ 4.83 µM) | 16 µg/mL (≈ 38.6 µM) | 0.125 µg/mL (≈ 0.302 µM) | 16 µg/mL (≈ 38.6 µM) | > 16 µg/mL | all | A significant proportion of nafcillin-treated animals showed positive metastatic infections at multiple sites | 

Row | Structure (SMILES) | MIC [1, 11] | MIC (Staphylococcus aureus; [14]) | MIC [1, 7] | MIC [1, 8] | MIC [1, 9] | MIC [1, 10] | MIC [1, 12] | MIC [1, 13] | Animals with positive catheter at harvest after lock therapy [2, 15] | Metastatic infection after lock therapy [2] | other results
3 | CO[C@H]1/C=C/O[C@@]2(C)Oc3c(C)c(O)c4c(O)c(c(/C=N/N5CCN(C)CC5)c(O)c4c3C2=O)NC(=O)/C(C)=C\C=C\[C@H](C)[C@H](O)[C@@H](C)[C@@H](O)[C@@H](C)[C@H](OC(C)=O)[C@@H]1C [Rifampicin] |  | < 0.004 µg/mL | 0.008 µg/mL (≈ 0.00972 µM) | < 0.004 µg/mL | 0.008 µg/mL (≈ 0.00972 µM) | > 4 µg/mL | < 0.004 µg/mL | 0.008 µg/mL (≈ 0.00972 µM) |  |  | # of isolates (lowest concentration that killed 99.90% of biofilm bacteria) ([3]; Antimicrobial Concentration 1): 1 (1); (N) number of rifampin susceptible isolates that became rifampin resistant during test ([3]; Antimicrobial Concentration 1): 1 (1); Mean log10 reduction ([3]; Antimicrobial Concentration 1): 3.5 log10; # of isolates (lowest concentration that killed 99.90% of biofilm bacteria) ([3]; Antimicrobial Concentration 2): 0; # of isolates (lowest concentration that killed 99.90% of biofilm bacteria) ([3]; Antimicrobial Concentration 4): 1; Mean log10 reduction ([3]; Antimicrobial Concentration 4): 3.2 log10; # of isolates (lowest concentration that killed 99.90% of biofilm bacteria) ([3]; Antimicrobial Concentration 8): 2; Mean log10 reduction ([3]; Antimicrobial Concentration 8): 3.4 log10; # of isolates (lowest concentration that killed 99.90% of biofilm bacteria) ([3]; Antimicrobial Concentration 16): 2; (N) number of rifampin susceptible isolates that became rifampin resistant during test ([3]; Antimicrobial Concentration 16): 1; Mean log10 reduction ([3]; Antimicrobial Concentration 16): 3.0 log10; # of isolates (lowest concentration that killed 99.90% of biofilm bacteria) ([3]; Antimicrobial Concentration 32): 0; # of isolates (lowest concentration that killed 99.90% of biofilm bacteria) [3, 16]: 21; (N) number of rifampin susceptible isolates that became rifampin resistant during test [3, 16]: 7; Mean log10 reduction [3, 16]: 1.4 log10
4 | CN[C@H](CC(C)C)C(=O)N[C@H]1C(=O)N[C@@H](CC(N)=O)C(=O)N[C@H]2C(=O)N[C@H]3C(=O)N[C@H](C(=O)N[C@H](C(=O)O)c4cc(O)cc(O)c4-c4cc3ccc4O)[C@H](O)c3ccc(c(Cl)c3)Oc3cc2cc(c3O[C@@H]2O[C@H](CO)[C@@H](O)[C@H](O)[C@H]2O[C@H]2C[C@](C)(N)[C@H](O)[C@H](C)O2)Oc2ccc(cc2Cl)[C@H]1O [Vancomycin] | 2 µg/mL (≈ 1.38 µM) |  | 1 µg/mL (≈ 0.69 µM) | 1 µg/mL (≈ 0.69 µM) | 1 µg/mL (≈ 0.69 µM) | 1 µg/mL (≈ 0.69 µM) | 1 µg/mL (≈ 0.69 µM) | 1 µg/mL (≈ 0.69 µM) | None | cleared and prevented reemergence of metastatic infection | Cidal activity against stationary phase culture ([4]; 5 mg/ml in lactated Ringer's): no cidal activity; Cidal activity against stationary phase culture ([4]; 5 mg/ml in lactated Ringer's, listed as vancomycin): not cidal; Cidal activity against stationary phase culture ([4]; 5 mg/ml in saline): neither daptomycin nor vancomycin had cidal activity; Cidal activity against stationary phase S. epidermidis (conclusion) ([4]; in vitro, medium not stated): not cidal; Biofilm formation and Gram positive bacterial colonies in the biofilm (histopathology summary) ([5]; 5 mg/mL via the catheter): did not prevent biofilm formation, or completely the growth and presence of Gram positive bacterial colonies in the biofilm; Bacterial colonies in biofilm, histopathology of single rats ([5]; after 4 days of infusion therapy, rat A12 daptomycin 33 mg/kg SC + 5 mg/mL via catheter, rat A17 vancomycin 50 mg/kg SC + 5 mg/mL via catheter): Biofilms containing true bacterial colonies; MIC (Staphylococcus aureus; Staphylococcus aureus): 0.25 µg/mL (≈ 0.173 µM); Overall outcome of lock therapy ([2]; 18 hour lock at 5 mg/ml): curative in lock therapy; Animals with positive blood draws after lock therapy [2, 15]: None; Catheter infection by CVC blood draw after infusion therapy ([6]; 5 mg/ml in line, daptomycin once a day, vancomycin twice a day, after three days of therapy (day 8)): reduced most catheter infections to a non-detectable level; Relative efficacy in the rat CVC model ([6]; comparison between treatments): equally effective (to daptomycin in Ringer's); Animals with harvested catheter positive for S. epidermidis CFUs [6, 17]: 2/6; Animals with positive blood draws through the catheter [6, 17]: 0/6; Clearing of blood draw cultures during infusion therapy ([6]; doses days 5-8, daptomycin 30 minute once a day, vancomycin 60 min twice a day): negative blood draw cultures by day 8; Metastatic infection after infusion therapy (vena cava, heart, lung, kidney, spleen) ([6]; infusion therapy, same groups as FIG. 3): very little metastatic infection at any site
